The values that follow come from article PMC9278437 (Journal of Enzyme Inhibition and Medicinal Chemistry, 2022).

Each structure is given as a SMILES string.

For test [1], the system named is breast cancer (MCF-7) cell line. Put plainly: In vitro anti-proliferative activity, MTT assay, MCF-7. Format: cell-based, human. As to conditions: for IC50: Homo sapiens, MCF7, 48 h, read-out: In vitro IC50 (nM) Mean ± SD MCF-7, MTT, 48 h, mean ± SD, n = 3; for In vitro IC50 (nM) Mean ± SD MCF-7: MTT, 48 h, n = 3. A general note: Tetrazolium dyes change colour on reduction, which living cells bring about.

For the next test, the target named is CDK2/cyclin A2 (Homo sapiens, UniProt P24941). In words: biochemical.
Test [2] relates to hepatocellular carcinoma (HepG-2) cell line. Put plainly: In vitro anti-proliferative activity, MTT assay, HepG-2. As to conditions: for IC50: Homo sapiens, HepG2, 48 h, read-out: In vitro IC50 (nM) Mean ± SD HepG-2; for In vitro IC50 (nM) Mean ± SD HepG-2: MTT, 48 h, n = 3. It is filed as cell-based, human.
Test [3] deals with colorectal carcinoma (HCT-116) cell line. In words: In vitro anti-proliferative activity, MTT assay, HCT-116. Format: cell-based, human. The following applies: 48 h, n = 3.

By IC50 is commonly meant the concentration needed to halve the response being measured. Consider `N=c1c2cnn(C(=O)CNc3ccc(F)cc3)c2ncn1N` [Compound 4, 1-(5-Amino-4-imino-4,5-dihydro-1H-pyrazolo[3,4-d]pyrimidin-1-yl)-2-((4-fluorophenyl)amino)ethan-1-one], for which the IC50 in test [1] was found to be 150 ± 1.5 nM; at CDK2/cyclin A2, 1340 ± 21 nM; in test [2], 603 ± 1.9 nM.
Regarding `N=c1c2cnn(C(=O)CNc3ccc(F)cc3)c2ncn1N[C@@H]1O[C@H](CO)[C@@H](O)[C@H](O)[C@H]1O` [Compound 5, 1-(4-Imino-5-((ß-D-glucopyranosyl)amino)-4,5-dihydro-1H-pyrazolo[3,4-d]pyrimidin-1-yl)-2-((4-fluorophenyl)amino)ethan-1-one], the IC50 in test [1] was determined as 663 ± 1.4 nM; at CDK2/cyclin A2 it was 2050 ± 50 nM; in test [2], 690 ± 0.48 nM.
The corresponding values for `N=c1c2cnn(C(=O)CNc3ccc(F)cc3)c2ncn1N[C@@H]1OC[C@@H](O)[C@H](O)[C@H]1O` [Compound 6, 1-(4-Imino-5-((ß-D-xylopyranosyl)amino)-4,5-dihydro-1H-pyrazolo[3,4-d]pyrimidin-1-yl)-2-((4-fluorophenyl)amino)ethan-1-one] are 621 ± 2.7 nM, 559 ± 13 nM and 98 ± 0.78 nM.
As to `O=C(CNc1ccc(F)cc1)n1ncc2c1ncn1[nH]c(=S)nc21` [Compound 7, 1-(2-Thioxo-2,3-dihydro-7H-pyrazolo[4,3-e][1,2,4]triazolo[1,5-c]pyrimidin-7-yl)-2-((4-fluorophenyl)amino)ethan-1-one], the IC50 in test [1] amounted to 937 ± 0.93 nM; against CDK2/cyclin A2, 274 ± 5 nM; in test [2] it was 63 ± 0.11 nM. In addition, the “In vitro IC50 (nM) Mean ± SD HepG-2” value in test [2] is on record as “moderate activity”.
On to `N#CCSc1nc2c3cnn(C(=O)CNc4ccc(F)cc4)c3ncn2n1` [Compound 8, 2-((7-((4-Fluorophenyl)glycyl)-7H-pyrazolo[4,3-e][1,2,4]triazolo[1,5-c]pyrimidin-2-yl)thio)acetonitrile], for which the IC50 in test [1] was found to be 72 ± 0.53 nM; against CDK2/cyclin A2, 1060 ± 59 nM; in test [2], 8 ± 0.34 nM. The “In vitro IC50 (nM) Mean ± SD HepG-2” value in test [2] is reported as “potent activity”.
For the compound `COC(CSc1nc2c3cnn(C(=O)CNc4ccc(F)cc4)c3ncn2n1)OC` [Compound 9, 1-(2-((2,2-Dimethoxyethyl)thio)-7H-pyrazolo[4,3-e][1,2,4]triazolo[1,5-c]pyrimidin-7-yl)-2-((4-fluorophenyl)amino)ethan-1-one], the results for the IC50 (in test [1]; against CDK2/cyclin A2; in test [2]) were 60 ± 0.49 nM, 881 ± 49 nM and 690 ± 1.6 nM, respectively. Further, the “In vitro IC50 (nM) Mean ± SD HepG-2” value in test [2] is “no activity”.
Take `O=C(CNc1ccc(F)cc1)n1ncc2c1ncn1nc(SCC(O)CO)nc21` (stereo not drawn) [Compound 10, 1-{2-[(2,3-Dihydroxypropyl)thio]-7H-pyrazolo[4,3-e][1,2,4]triazolo[1,5-c]pyrimidin-7-yl}-2-((4-fluorophenyl)amino)ethan-1-one]: the values for the IC50 (in test [1]; against CDK2/cyclin A2; in test [2]) were 95 ± 1.9 nM, 506 ± 11 nM and 987 ± 2 nM, respectively. Further, the “In vitro IC50 (nM) Mean ± SD MCF-7” value in test [1] is on record as “potent activity”.
For `CC(=O)OCC(CSc1nc2c3cnn(C(=O)CNc4ccc(F)cc4)c3ncn2n1)OC(C)=O` (stereo not drawn) [Compound 11, 3-((7-((4-Fluorophenyl)glycyl)-7H-pyrazolo[4,3-e][1,2,4]triazolo[1,5-c]pyrimidin-2-yl)thio)propane-1,2-diyl diacetate], the IC50 in test [1] was determined as 63 ± 1.1 nM; at CDK2/cyclin A2, 89 ± 5 nM; in test [2], 49 ± 0.17 nM. Further, in test [1], the “In vitro IC50 (nM) Mean ± SD MCF-7” value is on record as “good activity”. The “In vitro IC50 (nM) Mean ± SD HCT-116” value in test [3] is reported as “most potent cytotoxic results”. Further, the “In vitro IC50 (nM) Mean ± SD HepG-2” value in test [2] is listed as “moderate activity”.
With `O=C(CNc1ccc(F)cc1)n1ncc2c1ncn1nc(SCCO)nc21` [Compound 12, 1-(2-((2-Hydroxyethyl)thio)-7H-pyrazolo[4,3-e][1,2,4]triazolo[1,5-c]pyrimidin-7-yl)-2-((4-fluorophenyl)amino)ethan-1-one], the IC50 in test [1] was determined as 613 ± 0.33 nM; against CDK2/cyclin A2, 961 ± 19 nM; in test [2] it was 928 ± 0.97 nM. In addition, the “In vitro IC50 (nM) Mean ± SD MCF-7” value in test [1] was “inactive”. The “In vitro IC50 (nM) Mean ± SD HCT-116” value in test [3] is “inactive”. Moreover, the “In vitro IC50 (nM) Mean ± SD HepG-2” value in test [2] was “inactive”.
In the case of `CC(=O)OCCSc1nc2c3cnn(C(=O)CNc4ccc(F)cc4)c3ncn2n1` [Compound 13, 2-((7-((4-Fluorophenyl)glycyl)-7H-pyrazolo[4,3-e][1,2,4]triazolo[1,5-c]pyrimidin-2-yl)thio)ethyl acetate], the IC50 in test [1] amounted to 55 ± 0.43 nM; against CDK2/cyclin A2 it was 130 ± 7 nM; in test [2], 74 ± 1.1 nM. In test [1], the “In vitro IC50 (nM) Mean ± SD MCF-7” value is given as “good activity”. Besides, the “In vitro IC50 (nM) Mean ± SD HCT-116” value in test [3] is on record as “most potent cytotoxic results”. Besides, the “In vitro IC50 (nM) Mean ± SD HepG-2” value in test [2] is “moderate activity”.
As for `CNC(=O)c1cc(Oc2ccc(NC(=O)Nc3ccc(Cl)c(C(F)(F)F)c3)cc2)ccn1` [Sorafenib, reference compound], the results for the IC50 in test [1] and in test [2] were 144 ± 0.47 nM and 19 ± 0.29 nM, respectively.
